Measured values taken from ChEMBL document CHEMBL1909046, “DrugMatrix in vitro pharmacology data”.
pIC50, pKi: −log10 of the molar value.

How the values were obtained:
Adenosine receptor A2a = Adenosine receptor A2a (Homo sapiens, UniProt P29274); test: DRUGMATRIX: Adenosine A2A radioligand binding (ligand: […]); assay type: cell membranes, HEK293, Membrane; conditions: Not Active = under 50% inhibition at 10 µM; for IC50 / Ki: hek293
[1] = DRUGMATRIX: Potassium Channel [KATP] radioligand binding (ligand: [3H] Glyburide); assay type: cell membranes, Membrane; conditions: hit-t15; Not Active = under 50% inhibition at 10 µM
Cytochrome P450 2E1 = Cytochrome P450 2E1 (Homo sapiens, UniProt P05181); conditions: bti-tn-5b1-4; note: in other assays of this panel Not Active means under 50% inhibition at 10 µM
Sequence of Cytochrome P450 2E1 (P05181 whole entry): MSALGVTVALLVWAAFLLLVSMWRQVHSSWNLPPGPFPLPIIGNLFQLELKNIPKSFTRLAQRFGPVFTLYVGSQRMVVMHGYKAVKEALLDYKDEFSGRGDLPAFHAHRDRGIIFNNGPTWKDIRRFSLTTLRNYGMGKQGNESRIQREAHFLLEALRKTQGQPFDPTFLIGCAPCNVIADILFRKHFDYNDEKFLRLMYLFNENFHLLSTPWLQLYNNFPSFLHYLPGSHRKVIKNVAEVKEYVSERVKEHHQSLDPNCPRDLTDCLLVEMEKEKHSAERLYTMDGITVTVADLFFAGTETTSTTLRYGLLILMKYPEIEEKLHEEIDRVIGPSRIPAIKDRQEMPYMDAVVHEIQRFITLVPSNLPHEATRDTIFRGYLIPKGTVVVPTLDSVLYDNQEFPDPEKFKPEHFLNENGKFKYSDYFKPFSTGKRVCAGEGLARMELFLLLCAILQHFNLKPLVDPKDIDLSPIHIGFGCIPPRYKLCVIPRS

[2] = DRUGMATRIX: GABAA, Muscimol, Central radioligand binding (ligand: [3H] Muscimol); assay type: cell membranes, Rattus norvegicus, Wistar, Brain, Membrane; conditions: Not Active = under 50% inhibition at 10 µM
Adenosine receptor A1 = molecular target: T1, Adenosine receptor A1 (Homo sapiens, UniProt P30542); assay type: cell membranes, CHO, Membrane; conditions: for IC50 / Ki: cho;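 for all read-outs here: radioligand binding assay at the adenosine A1 receptor, with DPCPX serving as the labelled ligand; in other assays of this panel Not Active means under 50% inhibition at 10 µM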
T1 sequence (P30542 whole entry): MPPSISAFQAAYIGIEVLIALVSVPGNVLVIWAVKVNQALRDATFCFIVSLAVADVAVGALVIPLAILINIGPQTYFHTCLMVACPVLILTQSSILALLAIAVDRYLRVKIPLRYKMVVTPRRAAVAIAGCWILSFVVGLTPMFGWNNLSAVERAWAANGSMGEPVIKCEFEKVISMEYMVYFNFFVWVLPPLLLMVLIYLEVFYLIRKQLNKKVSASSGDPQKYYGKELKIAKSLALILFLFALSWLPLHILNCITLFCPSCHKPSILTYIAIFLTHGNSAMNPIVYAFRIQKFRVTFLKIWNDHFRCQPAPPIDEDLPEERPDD

Neutrophil elastase = molecular target: T2, Neutrophil elastase (Homo sapiens, UniProt P08246); assay type: tissue-based;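 note: inhibition of neutrophil elastase enzyme activity, measured with a p-nitroanilide-linked peptide substrate; in other assays of this panel Not Active means under 50% inhibition at 10 µM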
T2 sequence (P08246 whole entry): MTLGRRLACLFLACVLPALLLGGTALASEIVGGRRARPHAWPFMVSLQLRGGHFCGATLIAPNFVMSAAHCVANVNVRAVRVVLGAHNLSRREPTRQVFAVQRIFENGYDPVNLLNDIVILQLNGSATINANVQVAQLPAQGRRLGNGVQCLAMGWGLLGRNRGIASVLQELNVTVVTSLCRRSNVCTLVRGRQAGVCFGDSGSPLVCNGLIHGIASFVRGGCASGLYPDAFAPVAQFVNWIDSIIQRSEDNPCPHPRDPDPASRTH

[3] = molecular target: cGMP-specific 3',5'-cyclic phosphodiesterase (Homo sapiens, UniProt O76074); test: DRUGMATRIX: Phosphodiesterase PDE5 enzyme inhibition (substrate: [3H]cGMP + cGMP); assay type: tissue-based, Platelet; conditions: platelet; Not Active = under 50% inhibition at 10 µM

Sequence of Adenosine receptor A2a (P29274 whole entry): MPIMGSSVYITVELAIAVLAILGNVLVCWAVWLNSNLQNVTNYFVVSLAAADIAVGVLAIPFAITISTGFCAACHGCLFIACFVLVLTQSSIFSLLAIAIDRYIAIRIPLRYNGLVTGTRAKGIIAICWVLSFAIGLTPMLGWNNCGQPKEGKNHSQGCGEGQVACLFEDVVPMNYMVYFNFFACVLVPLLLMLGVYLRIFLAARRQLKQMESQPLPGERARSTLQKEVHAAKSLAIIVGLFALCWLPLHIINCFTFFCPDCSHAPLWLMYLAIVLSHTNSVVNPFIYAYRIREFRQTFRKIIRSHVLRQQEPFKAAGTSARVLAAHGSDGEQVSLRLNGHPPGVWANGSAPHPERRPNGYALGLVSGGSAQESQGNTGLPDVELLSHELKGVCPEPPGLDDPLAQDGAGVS

Molecule	IC50 (Adenosine receptor A2a)	IC50 [1]	Ki [1]	IC50 (Cytochrome P450 2E1)	Ki (Cytochrome P450 2E1)	IC50 [2]	Ki [2]	IC50 (Adenosine receptor A1)	IC50 (Neutrophil elastase)	IC50 [3]	Ki (Adenosine receptor A2a)	Ki (Adenosine receptor A1)	Ki (Neutrophil elastase)	Ki [3]	pIC50 (Adenosine receptor A2a; read-out: IC50)	pKi (Adenosine receptor A2a; read-out: Ki)	pIC50 (Adenosine receptor A1; read-out: IC50)	pKi (Adenosine receptor A1; read-out: Ki)
COC(=O)C[C@](O)(CCC(C)(C)O)C(=O)O[C@@H]1C(OC)=C[C@]23CCCN2CCc2cc4c(cc2[C@H]13)OCO4 [HARRINGTONINE]	Not Active	Not Active	Not Active	Not Active	Not Active	Not Active	Not Active	Not Active	Not Active	Not Active								
Nc1nc(F)nc2c1ncn2[C@@H]1O[C@H](CO)[C@@H](O)[C@@H]1O [FLUDARABINE]	Not Active	Not Active	Not Active	Not Active	Not Active	Not Active	Not Active	Not Active	Not Active	Not Active								
C=C(Cl)Cl [1,1-DICHLOROETHENE]	Not Active	Not Active	Not Active	Not Active	Not Active	Not Active	Not Active	Not Active	Not Active	Not Active								
CC[C@H]1OC(=O)[C@H](C)[C@@H](O[C@H]2C[C@@](C)(OC)[C@@H](O)[C@H](C)O2)[C@H](C)[C@@H](O[C@@H]2O[C@H](C)C[C@H](N(C)C)[C@H]2O)[C@](C)(O)C[C@@H](C)C(=O)[C@H](C)[C@@H](O)[C@]1(C)O [ERYTHROMYCIN]	Not Active	Not Active	Not Active	Not Active	Not Active	Not Active	Not Active	Not Active	Not Active	Not Active								
CCC1(c2ccccc2)C(=O)NC(=O)NC1=O [PHENOBARBITAL]	Not Active	Not Active	Not Active	Not Active	Not Active	Not Active	Not Active	Not Active	Not Active	Not Active								
CCN1C[C@]2(COC)[C@H](O)C[C@H](OC)[C@@]34[C@@H]5C[C@@]6(O)[C@H](OC(=O)c7ccccc7)[C@@H]5[C@@](OC(C)=O)([C@@H]([C@H](OC)[C@H]23)[C@@H]14)[C@@H](O)[C@@H]6OC [ACONITINE]	Not Active	Not Active	Not Active	Not Active	Not Active	Not Active	Not Active	Not Active	Not Active	Not Active								
CCN1CCN(C(=O)N[C@@H](C(=O)N[C@@H]2C(=O)N3[C@@H]2SC(C)(C)[C@@H]3C(=O)O)c2ccccc2)C(=O)C1=O [PIPERACILLIN]	Not Active	Not Active	Not Active	Not Active	Not Active	Not Active	Not Active	Not Active	Not Active	Not Active								
O=C(O)c1ccccc1 [BENZOIC ACID]	Not Active	Not Active	Not Active	Not Active	Not Active	Not Active	Not Active	Not Active	Not Active	Not Active								
OC[C@H]1O[C@@H]2O[C@H]3[C@H](O)[C@@H](O)[C@@H](O[C@H]4[C@H](O)[C@@H](O)[C@@H](O[C@H]5[C@H](O)[C@@H](O)[C@@H](O[C@H]6[C@H](O)[C@@H](O)[C@@H](O[C@H]7[C@H](O)[C@@H](O)[C@@H](O[C@H]1[C@H](O)[C@H]2O)O[C@@H]7CO)O[C@@H]6CO)O[C@@H]5CO)O[C@@H]4CO)O[C@@H]3CO [ALFADEX]	Not Active	Not Active	Not Active	Not Active	Not Active	Not Active	Not Active	Not Active	Not Active	Not Active								
c1ccc2sc(SSc3nc4ccccc4s3)nc2c1 [BENZOTHIAZYL DISULFIDE]	Not Active	Not Active	Not Active	Not Active	Not Active	Not Active	Not Active	Not Active	Not Active	Not Active								
CNC[C@H](O)c1ccc(O)c(O)c1 [EPINEPHRINE]	Not Active	Not Active	Not Active	Not Active	Not Active	Not Active	Not Active	Not Active	Not Active	Not Active								
POVIDONE	Not Active	Not Active	Not Active	Not Active	Not Active	Not Active	Not Active	Not Active	Not Active	Not Active	Not Active	Not Active	Not Active	Not Active				
C=CCO [ALLYL ALCOHOL]	Not Active	Not Active	Not Active	Not Active	Not Active	Not Active	Not Active	Not Active	Not Active	Not Active								
CHROMIC CHLORIDE	Not Active	Not Active	Not Active	Not Active	Not Active	Not Active	Not Active	Not Active	Not Active	Not Active	Not Active	Not Active	Not Active	Not Active				
Clc1cc(Cl)c(OCC#CI)cc1Cl [HALOPROGIN]	Not Active	Not Active	Not Active	Not Active	Not Active	Not Active	Not Active	Not Active	Not Active	Not Active								
C[N+](C)(C)CCOP(=O)([O-])OC[C@H](O)CO	Not Active	Not Active	Not Active	Not Active	Not Active	Not Active	Not Active	Not Active	Not Active	Not Active								
COc1ccc(C[C@H](N)C(=O)N[C@H]2[C@@H](O)[C@H](n3cnc4c(N(C)C)ncnc43)O[C@@H]2CO)cc1 [PUROMYCIN]	Not Active	Not Active	Not Active	Not Active	Not Active	Not Active	Not Active	Not Active	Not Active	Not Active								
ClC1=C(Cl)[C@]2(Cl)[C@@H]3[C@@H]4C[C@@H]([C@H]5O[C@@H]45)[C@@H]3[C@@]1(Cl)C2(Cl)Cl [DIELDRIN]	Not Active	Not Active	Not Active	Not Active	Not Active	Not Active	Not Active	Not Active	Not Active	Not Active								
CARBOXYMETHYLCELLULOSE	Not Active	Not Active	Not Active	Not Active	Not Active	Not Active	Not Active	Not Active	Not Active	Not Active	Not Active	Not Active	Not Active	Not Active				
CC(CN1c2ccccc2Sc2ccccc21)N(C)C (stereo not drawn) [PROMETHAZINE]	Not Active	Not Active	Not Active	Not Active	Not Active	Not Active	Not Active	Not Active	Not Active	Not Active								
NCC(CC(=O)O)c1ccc(Cl)cc1 (stereo not drawn) [BACLOFEN]	Not Active	Not Active	Not Active	Not Active	Not Active	Not Active	Not Active	Not Active	Not Active	Not Active								
CN(CCOc1ccc(C[C@H](Nc2ccccc2C(=O)c2ccccc2)C(=O)O)cc1)c1ccccn1		Not Active	Not Active	Not Active	Not Active	Not Active	Not Active		Not Active	Not Active					4.43	4.68	4.82	5.06
COPPER(II) OXIDE	Not Active	Not Active	Not Active	Not Active	Not Active	Not Active	Not Active	Not Active	Not Active	Not Active	Not Active	Not Active	Not Active	Not Active				
